According to US10398661B2, “Methods for classifying a cancer as susceptible to TMEPAI-directed therapies and treating such cancers” (THE BOARD OF REGENTS OF THE UNIVERSITY OF TEXAS SYSTEM, priority 2013, dated 2019):

Key:
[1] = cited from earlier work
[2] = Body weights of xenograft-bearing nude mice treated with CLST-NP or CLST (toxicity); format: in vivo; conditions: doses administered: 0.2 mg/kg CLST-NP, 2 mg/Kg CLST
Method: (FIG. 12A) Representative pictures of tumors excised from nude mice that harbored xenografts of human breast cancer cells (MDA-MB-231). (Veh-NP) 2 mg/kg drug-free liposomes, 0.2 mg/kg celastrol containing liposomes (CLST-NP) or 2 mg/Kg celastrol alone (CLST) were administered by intraperitoneal injection every alternate day for first week and every 2 day interval for following week for a total of two weeks period. (FIG. 12B) Tumor weights were shown *p<0.01 versus Vehicle control group. (FIG. 12C) Tumor volumes measured before sacrificing the animals. * p<0.01 versus Vehicle control group. (FIG. 12D) Similarities in body weights of animals treated with vehicle or drugs indicate non-toxicity of CLST-NP and CLST at the doses administered.
Similarities in body weights of animals treated with vehicle or drugs indicate non-toxicity of CLST-NP and CLST at the doses administered.

[3] = system: normal mammary epithelial cells MCF-10A; test: Growth of normal mammary epithelial MCF-10A cells with celastrol; format: cell-based; conditions: 1 μM
Description: FIGS. 10A-D: Celastrol is novel inhibitor of TMEPAI expression and cancer cell growth by enhancing growth suppressive TGF-β signaling. FIG. 10A. […] FIG. 10B. Celastrol had no effect on the growth of normal mammary epithelial cells MCF-10A. FIG. 10C. Celastrol inhibited non-Smad signaling (left panel) and enhanced Smad signaling (right panel) by inhibiting TMEPAI expression. FIG. 10D. Celastrol enhanced Smad signaling as measured by 12XCAGA-Luciferase reporter assay.
Terpinoid Derivative Celastrol Blocked TMEPAI Expression and Reversed TMEPAI Mediated Effects. The inventors identified tripterine (celastrol), a triterpinoid, having the ability to block TGF-β induced TMEPAI expression after screening several terpinoid derivatives with reactive α,β-unsaturated ketones in their structure. […] Only a mild decrease in the proliferation of normal MCF-10A cells was observed even at a 10-fold higher dose of celastrol (not shown). […] Equally, celastrol inhibited non-Smad signaling (FIG. 10C, left panel). The enhancement of Smad signaling is also confirmed by increased 12XCAGA-luciferase reporter activity (FIG. 10D).

MDA-MB-231 tumors = test: Subcutaneous MDA-MB-231 tumors in athymic mice treated with celastrol; format: in vivo; conditions: 2 mg/kg, 3 times a week for 4 weeks
Method: (§1) FIG. 11A. athymic mice bearing subcutaneous MDA-MB-231 tumors that were treated for 3 times a week for 4 consecutive weeks with 2 mg/kg celastrol or vehicle alone. FIG. 11B. Tumor weights following celastrol treatment, P<0.001. […] FIG. 11C. […] Toxicity of celastrol administered was monitored by measuring total body weight.
(§2) Pharmacological Inhibition of TMEPAI Expression Reduces Tumor Growth In Vivo. […] Compared to vehicle-treatment, celastrol treatment led to a ˜6-fold reduction in tumor burden (FIG. 11B). […] Thus, these preclinical studies confirm that TMEPAI expressing breast cancers thrive by suppressing tumor suppressive TGF-β signaling and are therefore susceptible to pharmacological inhibition of TMEPAI expression by celastrol.

[4] = Total body weight of tumor-bearing mice treated with celastrol (toxicity); format: in vivo; conditions: 2 mg/kg
Method: as §1, §2

TMEPAI [5] = test: TMEPAI RNA and protein expression in normal human mammary epithelial cells (HMEC) with TGF-β; format: cell-based; conditions: in response to TGF-β
Description: (§3) FIGS. 1A-B: Relative expression of TMEPAI mRNA and protein in normal and cancer cells. FIG. 1A. Effect of TGF-β on TMEPAI mRNA expression by QPCR in normal human mammary epithelial (HMEC) and MDA-MB-231 breast cancer cells, which is inhibited by TGF-β receptor I kinase inhibitor SB431542 (SB). FIG. 1B. Relative expression of TMEPAI protein in HMEC and MDA-MB-231 cells without or with TGF-β stimulation.
(§4) TMEPAI Expression in Normal Mammary Epithelial Cells Vs Breast Cancer Cells. […] The inventors tested the expression of TMEPAI in various breast cancer lines by immunoblotting. […] Moreover, TMEPAI is also expressed by aggressive HER2-positive breast cancer cells that either coexpress estrogen receptor (BT-474) or not (SK-BR-3) (FIG. 2).

TMEPAI [6] = test: TMEPAI mRNA (QPCR) and protein expression in MDA-MB-231 cells with TGF-β; format: cell-based, human
Description: as §3, §4

[7] = MDA-MB-231 cells, within 6 h of treatment

In the case of `CC1=C(O)C(=O)C=C2C1=CC=C1[C@@]2(C)CC[C@@]2(C)[C@@H]3C[C@](C)(C(=O)O)CC[C@]3(C)CC[C@]12C` [celastrol], the aqueous solubility [1] is given as “low”, the “toxicity judged from body weights similar to vehicle” value [2] is given as “non-toxicity” and the “growth of normal MCF-10A cells” value [3] is given as “no effect”. The “reduction in tumor burden compared to vehicle-treatment (tumor weights)” value (MDA-MB-231 tumors) was roughly 6 fold, the “luminescence signal in the tumors” value (MDA-MB-231 tumors; MDA-MB-231 cells expressing GFP-luciferase) was 500-2500 RLU and the “total body weights of mice versus vehicle” value [4] was “remained the same”. The “toxic effects at the dose given to mice” value [4] was “no toxic effects”.
For TGF-β, the “induction of TMEPAI RNA and proteins” value (TMEPAI [5]) was “poorly induced”, the “induction of TMEPAI mRNA” value (TMEPAI [6]; [7]) was greater than 40 fold and the “induction of TMEPAI proteins” value (TMEPAI [6]; [7]) was roughly 9 fold.
In the case of `NC(=O)c1ccc(-c2nc(-c3ccc4c(c3)OCO4)c(-c3ccccn3)[nH]2)cc1` [SB431542], the “effect of TGF-β on TMEPAI mRNA expression by QPCR in presence of inhibitor” value (TMEPAI [6]; HMEC and MDA-MB-231 cells) is reported as “inhibited”.
